What was measured:
hippocampal neurons [1] = assay: Functional terminal density by FM1-43 imaging
Experimental: (§3) Neurons were plated onto Matrigel® (BD)-coated 8×8 mm coverslips or 6-well cell plates (Corning).
Background FM, determined by imaging after unloading of FM dye following 480 APs at 2 Hz, was subtracted from the physiological action potential image. Terminals containing detectable amount of FM after subtraction were considered to be functional.
FM 1-43+ puncta number per μm^2 of dendrite was used to estimate functional presynaptic terminal density.

[2] = test system: cultured rat hippocampal neurons; assay: Intracellular free Mg2+ analysis (Magnesium Green) in hippocampal neuron cultures
Experimental: as §3
[Mg^2+]i was determined by using Magnesium Green™ (MgGreen, Invitrogen).
Where F(a.u.) is the mean fluorescent density (arbitrary units) in the branch of interest which was quantified by using Image-Pro Plus software (IPP, Media Cybernetics, Carlsbad, Calif.), and Ddiameter is the mean width of the same selected branch in DIC image.

hNSC-derived neurons = test system: hNSC-derived neurons
Experimental: Human fetal cortices-derived neural stem cells (hNSC; Angecon, China) were cultured in hNSC medium (Angecon) according to guidelines provided by Angecon. hNSCs were maintained in this medium for 10-14 days, passaged using Accutase (Invitrogen), washed and replated at a dilution of 1:3 to 1:5.
A previously described differentiation protocol was used to differentiate hNSCs to neurons. Briefly, hNSC cultures were dissociated into single cells with Accutase, and then plated on polyornithine/laminin (Sigma)-coated 6-well plates at 50,000 cells per cm^2 in neural maintenance medium with EGF (Invitrogen) and FGF2 (Pepro Tech) at a concentration of 10 ng ml^−1. Neural maintenance medium consists of a 1:1 mixture of DMEM/F12 and Neurobasal medium (Invitrogen), 1×N2 (Invitrogen), 1×B27 (Invitrogen), 1 mM L-glutamine, 0.1 mM non-essential amino acids, 5 μg ml^−1 insulin, 0.1 mM 2-mercaptoethanol, 25 U ml^−1 penicillin and […] streptomycin. […] Neurons were maintained 10-14 days in this medium; medium was replaced every day. When neuroepithelial cells appeared, Dispase (Roche) was used to collect cells. They were replated in neural maintenance medium with EGF and FGF2 at 20 ng ml^−1 for 2-4 days, then changed to neural maintenance medium and cultured for up to 80 days, replacing medium every other day.
(§1) Proteins were transferred to PVDF membranes (Millipore), probed with primary antibodies against Synaptophysin (Millipore), RIM1 and Rab3a (Synaptic System), PSD-95, NR2B, β-tubulin and/or β-actin (all from Cell Signaling Technology) and then followed by an appropriate HRP-coupled secondary antibody (Cell Signaling Technology). The signals were detected by ECL detection reagent (GE Healthcare) and captured on autoradiography film (Kodak). For quantification of protein signals, the integrated optical density (IOD) was measured with IPP, and β-tubulin or β-actin on the same lane served as loading controls.

hippocampal neurons [3] = conditions: threonate 0-150 μM, 2 days
Experimental: (§2) For chemical structure see supplemental FIG. 1.
Neuronal cultures were washed three times in 0.01 M PBS followed by fixation for 20 min in 4% paraformaldehyde at 4° C. The neuronal culture coverslips were then washed in PBS before incubation in blocking solution containing 0.1% Triton X-100 and 1% bovine serum albumin for 30 min at room temperature. […] Finally, neurons were mounted onto slides with anti-fade fluorescent mounting medium (Vector Laboratories) and stored at 4° C. for 2 days.
Cultures were imaged with a confocal laser inverted microscope (Olympus IX-70) equipped with a 60× (NA 1.2) objective. […] The density of synaptophysin (Syn) and PSD-95 was estimated from images by analyzing with IPP. The puncta of Syn and PSD-95, localized at the dendrites labeled by the neuronal marker MAP2, were counted manually. To determine the density of Syn and PSD-95 colocalization, we aligned two sets of images and resulting yellow clusters (Syn: red; PSD-95: green) localized at dendritic were quantified. Fluorescence spots (red and green) having a diameter between 0.1 and 0.6 μm were classified.

hippocampal neurons [4] = conditions: threonate 0-150 μM, 2 days; remark: listed apart in the source
Description: as §2, §1

hippocampal neurons [5] = conditions: threonate (150 M) for 2 days, 0.6 Mg, p<0.01
Description: Mitochondrial transmembrane potential (Δψm) of hippocampal neurons was observed microscopically (Olympus IX-70) by using 5,5′,6,6′-tetrachloro-1,1′,3,3′-tetraethylbenzimidazolylcarbocyanine iodide (JC-1, Invitrogen). The monomeric form of JC-1 has an emission maximum at 529 nm. At higher concentrations or potentials the dye forms red fluorescent J-aggregates with an emission maximum of 590 nm. The ratio of J-aggregate/J-monomer is used as an estimate of Δψm.

[6] = human neurons treated at day 90, dose-dependent, up to 400 μM
[7] = threonate 150 μM, time course 0-36 hr

C=C1[C@@H](C)[C@H]2[C@H](Cc3ccccc3)NC(=O)[C@]23OC(=O)/C=C/[C@H](O)CCC[C@@H](C)C/C=C/[C@H]3[C@@H]1O [CB, cytochalasin B, reference compound]
density of functional terminals relative to control, inhibitor alone (hippocampal neurons [1]; 4 hr, without threonate): did not affect | intracellular [Mg2+] relative to control, inhibitor alone ([2]; 4 hr, without threonate): did not alter

NCC(=O)O [glycinate, reference compound]
effect on functional terminal density, comparison of anions (hippocampal neurons [1]): no significant effects | ability to increase intracellular [Mg2+], comparison of anions [2]: threonate was the only one able to increase

O=C(CCc1ccc(O)cc1)c1c(O)cc(O)cc1O [phloretin, reference compound]
decrease of functional terminal density, inhibitor alone (hippocampal neurons [1]; 4 hr, without threonate, p<0.05): 10.5% | decrease of intracellular [Mg2+] relative to placebo, inhibitor alone ([2]; 4 hr, without threonate, p<0.01): 10.4%

O=C(O)[C@H](O)[C@@H](O)CO [threonate, (2R,3S)-2,3,4-trihydroxybutanoate]
threonate dose response curve in human neurons compared to the rat dose response curve (hNSC-derived neurons; effects continued to increase even at 400 μM): shifted toward a higher concentration | PSD-95 expression (Western blot) (hNSC-derived neurons; [6]): significantly increased | Syn expression (Western blot) (hNSC-derived neurons; [6]): significantly increased | effect on functional terminal density in the presence of CB (hippocampal neurons [1]; threonate 150 μM, 4 hr, with cytochalasin B): unable to elevate | increase of functional terminal density relative to control in the presence of phloretin (hippocampal neurons [1]; threonate 150 μM, 4 hr, with phloretin, p<0.001): 20.4% | number of functional terminals, dose dependence (hippocampal neurons [1]; threonate 50-150 μM, 2 days, extracellular [Mg2+] 0.6, 0.8 or 1.2 mM): increased in threonate-treated neurons in a dose-dependent manner | effect on functional terminal density at reduced extracellular [Mg2+] (hippocampal neurons [1]; threonate 4 hr, 0.1 mM extracellular [Mg2+]): prevented threonate from increasing functional terminal density | increase of functional terminal density (hippocampal neurons [1]; threonate (150 M) for 4 hr, 0.6 mM extracellular [Mg2+] (Example 5)): 23% | colocalization of Syn/PSD-95 (hippocampal neurons [3]): significantly upregulated | density of PSD-95 puncta (hippocampal neurons [3]): significantly upregulated | density of Syn puncta (hippocampal neurons [3]): significantly upregulated | NR2B-containing NMDAR expression (Western blot) (hippocampal neurons [4]): significantly upregulated | PSD-95 expression (Western blot) (hippocampal neurons [4]): significantly increased | RIM1 expression (Western blot) (hippocampal neurons [4]): significantly increased | Rab3a expression (Western blot) (hippocampal neurons [4]): significantly increased | Syn expression (Western blot) (hippocampal neurons [4]): significantly increased | increase of mitochondrial membrane potential ΔΨm (JC-1 aggregate/monomer ratio) (hippocampal neurons [5]): 49.6% | threonate-mediated increase of intracellular [Mg2+] in the presence of CB ([2]; 4 hr, with cytochalasin B (GLUTs inhibitor)): prevented | increase of intracellular [Mg2+] in the presence of phloretin ([2]; 4 hr, with phloretin (SVCT2 inhibitor), p<0.0001): 23.5% | threonate concentration that induced the largest change in intracellular [Mg2+] ([2]; 2 day treatment, 0-200 μM tested): 150 µM | effect on intracellular [Mg2+] ([2]; 2 day treatment, threonate 0-200 μM, extracellular [Mg2+] 0.6, 0.8 or 1.2 mM): increase of intracellular [Mg^2+] in a dosage-dependent manner | effect on intracellular [Mg2+] at reduced extracellular [Mg2+] ([2]; threonate 150 μM, 4 hr, 0.1 mM extracellular [Mg2+]): no longer induced elevation | increase of intracellular [Mg2+] ([2]; threonate 150 μM, 4 hr, 0.6 mM extracellular [Mg2+] (Example 3)): ~27% | persistence of the intracellular [Mg2+] increase [2, 7]: persisted for the entire course of the experiment | time at which effect on intracellular [Mg2+] was maximal [2, 7]: 2 h | increase of intracellular [Mg2+] ([2]; threonate (150 mM), 4 hr, 0.6 mM [Mg2+]o (Example 7), p<0.0001): 29.6%
